In ChEMBL document CHEMBL1130449, “Potent novel nonsteroidal androgen antagonists with a phthalimide skeleton” (1997):

Key:
SC-3 = experiment: Growth inhibition of androgen-dependent clonal cell line SC-3, derived from Shionogi carcinoma 115; type: functional, Mus musculus; set-up: unit not given here
HL-60 [1] = experiment: Production of TNF-alpha by HL-60 cells in the presence of 50 nM okadaic acid with 300 nM test compound
HL-60 [2] = experiment: Production of TNF-alpha in HL-60 cells in the presence of 50 nM okadaic acid with 30 uM test compound

| SMILES | No. of cells (SC-3) | Production (HL-60 [1]) [%] | Production (HL-60 [2]) [%] |
| --- | --- | --- | --- |
| C[C@@H](c1ccccc1)N1C(=O)c2c(F)c(F)c(F)c(F)c2C1=O | 16 | 2 | – |
| C[C@H](c1ccccc1)N1C(=O)c2c(F)c(F)c(F)c(F)c2C1=O | 3 | 70 | – |
| O=C1c2c(F)c(F)c(F)c(F)c2C(=O)N1CC1Cc2ccccc2C1 | 61 | 43 | – |
| C[C@H](C1CCCCC1)N1C(=O)c2c(F)c(F)c(F)c(F)c2C1=O | 5 | 65 | – |
| C[C@@H](c1cccc2ccccc12)N1C(=O)c2c(F)c(F)c(F)c(F)c2C1=O | 9 | 2 | – |
| O=C1c2ccccc2C(=O)N1CC1Cc2ccccc2C1 | 56 | – | 50 |
| CC(=O)C(CN1C(=O)c2ccccc2C1=O)C(C)=O | 49 | – | 72 |
| O=C1c2ccccc2C(=O)N1Cc1c(Cl)cccc1Cl | 69 | – | 39 |
| C[C@H](c1cccc2ccccc12)N1C(=O)c2c(F)c(F)c(F)c(F)c2C1=O | 14 | 101 | – |
| C[C@@H](C1CCCCC1)N1C(=O)c2c(F)c(F)c(F)c(F)c2C1=O | 2 | 10 | – |
| O=C1c2c(F)c(F)c(F)c(F)c2C(=O)N1Cc1c(Cl)cccc1Cl | 45 | 76 | – |
| O=C1c2ccccc2C(=O)N1CNc1ccccc1 | 91 | – | 73 |
| CC(C)C(=O)Nc1ccc([N+](=O)[O-])c(C(F)(F)F)c1 [FLUTAMIDE] | 66 | – | 103 |
